Results from US20260041093A1, “Ionic Derivatives Of Aromatic Carboxylic Acid For Use As Plant Stimulants, Method For Stimulating Plants And Use Of These Derivatives For Manufacturing Compositions For Stimulating Plants” (FUNDACJA UNIWERSYTETU IM. ADAMA MICKIEWICZA W POZNANIU, priority 2022, published 2026).
Like-named read-outs stand apart in the source and are kept apart here.

Legend:
[1] = test system: tulip; assay: Tulip bulbs in peat watered with working solution: height, stem diameter, weights, root length, flowering, vigor (Example 1); type: in vivo; conditions: 80 mg/L, benzothiadiazole salt 30 mg/L
Method: Control plants were watered with distilled water. During the conducted experiment, plant height was measured before each treatment. Flowering length and plant vigor were also studied. After 20 days from the end of the last treatment, the fresh and dry weight of aboveground parts and roots, and root length were assessed.

[2] = test system: tomato seedlings; assay: Tomato seedlings in pots sprayed 3 times: height, fresh and dry weight, chlorophyll (Example 3); type: in vivo; conditions: 80 mg/L, benzothiadiazole salt 30 mg/L
Source text: Tomato seedlings (12 according to development scale BBCH) were planted into pots with peat substrate (P9 pots having 0.5 l). Plant pots were placed in greenhouse and cultivated for a 1 and a half month. Plants were sprayed with tested substance 3 times, in 10-day interval. […] 2-methoxyethyl(trimethyl)-ammonium benzo[1,2,3]thiadiazole-7-carboxylate; 3. […] 2-methoxyethyl(trimethyl)ammonium 3-chlorosalicylate; 7. 2-ethoxyethyl(trimethyl)ammonium 3-chlorosalicylate; 8. ethyl(trimethyl)ammonium 3-chlorosalicylate at a concentration od 80 mg/l. Plants were sprayed with tested substances three times at 10-day intervals. Plants in peat substrate treated with water only were the control. During the course of the experiment, the height of the plants was measured, and at the end the fresh and dry weight of the aboveground part was evaluated. Moreover chlorophyll content was measured. The experiment was conducted in 4 repetitions with 5 plants in each (a total of 20 plants per each variant of treatment).

[3] = test system: winter rapeseed; conditions: for more aboveground dry matter compared to control: last harvest date, fully ripe
Source text: The experiment was established using the long strip method in four repetitions. The dimensions of the plots at establishment were 96 m^2 gross, while the harvestable area was 23.25 m^2 net.
In the experiment, uniform NPK fertilization was applied, using both bulk and liquid fertilizers.
The following facilities were included in the experiment: • 1. control, no stimulant application, standard fungicide protection • 2. stimulant applied at stage 31-32 according to the BBCH development scale, standard fungicide protection • 3. stimulant applied at stage 53-55 according to the BBCH development scale, no fungicide protection

[4] = test system: broccoli; assay: Broccoli seedlings in pots sprayed: height, fresh and dry weight (Example 4); type: in vivo
Method: Broccoli seedling were planted into pots with peat substrate (P9 pots having 0.5 l). Pots were placed in greenhouse and cultivated for a 1 month. […] 2-fluoroethyl(trimethyl)ammonium benzo[1,2,3]thiadiazole-7-carboxylate; 3. 2-bromoethyl(trimethyl)ammonium benzo[1,2,3]thiadiazole-7-carboxylate; 4. 2-chloroethyl(trimethyl)ammonium benzo[1,2,3]thiadiazole-7-carboxylate; 5. 2-iodoethyl(trimethyl)ammonium benzo[1,2,3]thiadiazole-7-carboxylate used at a concentration of 30 mg/L and 6. 2-hydroxyethyl(trimethyl)ammonium 3-chlorosalicylate (tested also at a concentration of 50 mg/L); 7. 3-chlorosalicylate 2-fluoroethyl(trimethyl)ammonium; 8. 3-chlorosalicylate 2-bromoethyl(trimethyl)ammonium; 9. 3-chlorosalicylate 2-chloroethyl(trimethyl)ammonium; 10. 3-chlorosalicylate 2-iodoethyl(trimethyl)ammonium used at a concentration of 80 mg/L. Plants were sprayed with tested substances three times at 10-day intervals. Plants treated with water only were the untreated control. During the course of the experiment, the height of the plants was measured, and at the end the fresh and dry weight of the aboveground part was evaluated. The experiment was conducted in 4 repetitions with 5 plants in each (a total of 20 plants per each combination).

[5] = test system: lettuce; conditions: 3-chlorosalicylate 100 mg/L double application, benzothiadiazole salt 50 mg/L single application
Method: The purpose of the study was to determine the effect of foliar spraying with test solutions on lettuce plants (Lactuca sativa L. ‘Zeralda’) under abiotic stress conditions—low temperature. After 7 and 14 days after transplanting the plants to a permanent place, spraying of the plants was carried out. […] After another 7 days, low temperature stress was induced—plants were grown in three glass chambers with a day temperature of 22° C. and night temperatures of 4, 12 and 20° C. until harvest.

[6] = Table 2, 20 days after last treatment
[7] = Table 3 (title: tulip bulbs / root system)
[8] = BBCH 32, standard fungicide protection, 80 mg/L, benzothiadiazole salt 25 mg/L
[9] = BBCH 32, stimulant only, 80 mg/L, benzothiadiazole salt 25 mg/L
[10] = BBCH 55, standard fungicide protection, 80 mg/L, benzothiadiazole salt 25 mg/L
[11] = BBCH 55, without fungicide, 80 mg/L, benzothiadiazole salt 25 mg/L
[12] = first sampling date, stimulant at BBCH 31-32, no fungicide yet, 80 mg/L, benzothiadiazole salt 25 mg/L
[13] = second date, regardless of cultivation technology, 80 mg/L, benzothiadiazole salt 25 mg/L
[14] = 3-chlorosalicylate 80 mg/L, benzothiadiazole salt 30 mg/L

Compound: C[N+](C)(C)CCO.O=C([O-])c1cccc(Cl)c1O [choline 3-chlorosalicylate]
- Average stem diameter at the end of the experiment 20 days after the 4th treatment [1]: 8.1 b mm
- Flowering length [1]: 23 days
- Root length [1]: 84.3 b mm
- Vigor [on a scale from 1 to 5] ([1]; 1 is a laying plant, 5 is a stiff plant): 4.8 b
- Average dry weight of the above-ground part [1, 6]: 41.8 b g
- Average fresh weight of the above-ground part [1, 6]: 443.8 b g
- Average dry weight of the above-ground part [1, 7]: 5.6 b g
- Average fresh weight of the above-ground part [1, 7]: 59.5 b g
- Average plant height, initial height, first treatment ([1]; before 1st watering): 45.7 a mm
- Average plant height, second treatment ([1]; before 2nd watering): 130.5 b mm
- Average plant height, third treatment ([1]; before 3rd watering): 257.4 b mm
- Average plant height, fourth treatment ([1]; before 4th watering): 369.1 b mm
- Average plant height, 20 days after the 4th treatment ([1]; end of experiment): 510.9 b mm
- Average plant height, before second treatment ([2]; chitosan lactate 50 mg/l): 143.2 b mm
- Average plant height, before third treatment ([2]; chitosan lactate 50 mg/l): 345.1 b mm
- Average plant height, initial height, before first treatment ([2]; chitosan lactate 50 mg/l): 59.3 a mm
- Chlorophyll content (SPAD), a day after treatment #1 ([2]; chitosan lactate 50 mg/l): 74.6 b
- Chlorophyll content (SPAD), a day after treatment #2 ([2]; chitosan lactate 50 mg/l): 76.2 b
- Chlorophyll content (SPAD), a day after treatment #3 ([2]; chitosan lactate 50 mg/l): 79.3 b
- Plant height increase ([2]; chitosan lactate 50 mg/l): 285.8 b mm
- Average dry mass ([2]; above-ground part): 83.1 b g
- Average fresh mass ([2]; above-ground part): 327.7 b g
- Chlorophyll content (SPAD), Treatment #1 ([2]; before treatment #1, chitosan lactate 50 mg/l): 48.5 a
- Chlorophyll content (SPAD), Treatment #2 ([2]; before treatment #2, chitosan lactate 50 mg/l): 48.3 a
- Chlorophyll content (SPAD), Treatment #3 ([2]; before treatment #3, chitosan lactate 50 mg/l): 49.5 a
- increase in calcium uptake [3, 8]: 5%
- increase in magnesium uptake [3, 8]: 4%
- increase in nitrogen uptake [3, 8]: 6%
- increase in phosphorus uptake [3, 8]: 7%
- increase in potassium uptake [3, 8]: 6%
- increase in calcium uptake [3, 9]: 8%
- increase in magnesium uptake [3, 9]: 12%
- increase in nitrogen uptake [3, 9]: 9%
- increase in phosphorus uptake [3, 9]: 7%
- increase in potassium uptake [3, 9]: 8%
- higher fat content ([3]; BBCH 32, with fungicide, 80 mg/L, benzothiadiazole salt 25 mg/L): 6%
- higher fat content ([3]; BBCH 32, without fungicide, 80 mg/L, benzothiadiazole salt 25 mg/L): 8%
- increase in calcium uptake [3, 10]: 9%
- increase in fat content [3, 10]: 6%
- increase in magnesium uptake [3, 10]: 10%
- increase in nitrogen uptake [3, 10]: 11%
- increase in phosphorus uptake [3, 10]: 10%
- increase in potassium uptake [3, 10]: 8%
- increase in calcium uptake [3, 11]: 10%
- increase in fat content [3, 11]: 5%
- increase in magnesium uptake [3, 11]: 12%
- increase in nitrogen uptake [3, 11]: 11%
- increase in phosphorus uptake [3, 11]: 10%
- increase in potassium uptake [3, 11]: 7%
- seed yields higher compared to control ([3]; both fungicide and stimulant treatments, 80 mg/L, benzothiadiazole salt 25 mg/L): 20%
- chlorophyll content, differences between the tested objects ([3]; first measurement date): no differences were observed
- more biomass (dry weight) compared to control [3, 12]: 34%
- more biomass (fresh weight) compared to control [3, 12]: 36%
- more aboveground dry matter compared to control ([3]; only the stimulant, 80 mg/L, benzothiadiazole salt 25 mg/L): 42%
- more aboveground dry matter compared to control ([3]; with fungicide protection, 80 mg/L, benzothiadiazole salt 25 mg/L): 38%
- more dry weight compared to control, on average [3, 13]: 32%
- more fresh weight compared to control, on average [3, 13]: 28%
- weight of one thousand seeds higher compared to control ([3]; tested combinations, 80 mg/L, benzothiadiazole salt 25 mg/L): 10%
- more chlorophyll in the leaves (SPAD) compared to control ([3]; with a fungicide, printed 'first date' (of second and third measurement dates), 80 mg/L, benzothiadiazole salt 25 mg/L): 5%
- more chlorophyll in the leaves (SPAD) compared to control ([3]; with a fungicide, printed 'second date', 80 mg/L, benzothiadiazole salt 25 mg/L): 7%
- more chlorophyll in the leaves (SPAD) compared to control ([3]; without a fungicide, printed 'first date', 80 mg/L, benzothiadiazole salt 25 mg/L): 6%
- more chlorophyll in the leaves (SPAD) compared to control ([3]; without a fungicide, printed 'second date', 80 mg/L, benzothiadiazole salt 25 mg/L): 5%
- seed yields higher compared to control ([3]; without fungicide protection, stimulant at BBCH 31-32, 80 mg/L, benzothiadiazole salt 25 mg/L): 10%
- Average dry mass ([4]; 50 mg/L): 0.6 b g
- Average fresh mass ([4]; 50 mg/L): 6.8 b g
- Average plant height, initial height, before first treatment ([4]; 50 mg/L): 37.6 b mm
- Average plant height, second treatment ([4]; 50 mg/L): 146.4 a mm
- Average plant height, third treatment ([4]; 50 mg/L): 178.5 a mm
- Plant height increase ([4]; 50 mg/L): 140.9 a mm
- Average dry mass [4, 14]: 0.6 b g
- Average fresh mass [4, 14]: 6.7 b g
- Average plant height, initial height, before first treatment [4, 14]: 36.5 a mm
- Average plant height, second treatment [4, 14]: 146.0 a mm
- Average plant height, third treatment [4, 14]: 179.5 a mm
- Plant height increase [4, 14]: 143.0 a mm
- Head weight, 4° C. ([5]; night temperature 4° C.): 48.9 b g/plant
- Head weight, 12° C. ([5]; night temperature 12° C.): 52.8 b g/plant
- Head weight, 20° C. ([5]; night temperature 20° C.): 65.3 b g/plant
